Laboratory results taken from patent US20230114728A1 (Venatorx Pharmaceuticals, Inc., priority 2019, published 2023).
In brackets after ≈: the same amount, converted by molar mass.

How the values were obtained:
Format in all cases: cell-based
[1] = tested on: N. gonorrhoeae WHO G; test: Liquid broth MIC in Fastidious broth; details: Neisseria gonorrhoeae; N. gonorrhoeae strain WHO G; Fastidious broth; read-out: Minimum Inhibitory Concentration, N. gonorrhoeae WHO G
Summary of the method: (§1)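 Colonies were swabbed from chocolate agar after 24 h growth and standardised by optical density at 600 nm. Compounds were serially diluted twofold in Fastidious broth, and bacteria added to give 5×10^5 CFU/mL. After about 24 h at 36 °C in 5% CO2, the lowest concentration allowing under 10% growth was taken as MIC.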

[2] = tested on: N. gonorrhoeae WHO L; test: Liquid broth MIC in Fastidious broth; details: Neisseria gonorrhoeae; N. gonorrhoeae strain WHO L; Fastidious broth; read-out: Minimum Inhibitory Concentration, N. gonorrhoeae WHO L
Summary of the method: as §1

[3] = tested on: N. gonorrhoeae WHO K; test: Liquid broth MIC in Fastidious broth; details: Neisseria gonorrhoeae, read-out: Minimum Inhibitory Concentration, N. gonorrhoeae WHO K
Summary of the method: (§2)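 Strains bearing mosaic PBP2 grown 24 h on chocolate agar (36° C, 5% CO2), suspended in saline and added to 2-fold compound dilutions in Fastidious broth at 5×10^5 CFU/mL. After ~24 hours at 36° C with 5% CO2, MIC taken visually as lowest well with <10% growth relative to full growth.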

[4] = tested on: N. gonorrhoeae FA1090; test: Liquid broth MIC in Fastidious broth; details: Neisseria gonorrhoeae; N. gonorrhoeae strain FA1090; Fastidious broth; read-out: Minimum Inhibitory Concentration, N. gonorrhoeae FA1090
Summary of the method: as §1

[5] = tested on: N. gonorrhoeae WHO Q; test: Liquid broth MIC in Fastidious broth; details: Neisseria gonorrhoeae, read-out: Minimum Inhibitory Concentration, N. gonorrhoeae WHO Q
Summary of the method: as §2

[6] = tested on: N. gonorrhoeae H041; test: Liquid broth MIC in Fastidious broth; details: Neisseria gonorrhoeae, H041, read-out: Minimum Inhibitory Concentration, N. gonorrhoeae H041
Summary of the method: as §2

[7] = tested on: N. gonorrhoeae ATCC 49226; test: Liquid broth MIC in Fastidious broth; details: Neisseria gonorrhoeae, ATCC49226; N. gonorrhoeae strain ATCC 49226; Fastidious broth; read-out: Minimum Inhibitory Concentration, N. gonorrhoeae ATCC 49226
Summary of the method: as §1

[8] = tested on: N. gonorrhoeae WHO Z; test: Liquid broth MIC in Fastidious broth; details: Neisseria gonorrhoeae, read-out: Minimum Inhibitory Concentration, N. gonorrhoeae WHO Z
Summary of the method: as §2

[9] = tested on: E. coli ATCC 25922; test: Broth microdilution MIC in CAMHB; details: Escherichia coli, ATCC25922; E. coli ATCC 25922; MHB; read-out: Minimum Inhibitory Concentration, E. coli 25922
Summary of the method: (§3)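 CLSI microdilution; CAMHB; inoculum 2-8×10^5 CFU/mL from 3-5 h 37° C culture; 2-fold compound series; 16-20 h, 37° C; MIC = lowest well without visible growth.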

[10] = tested on: K. pneumoniae SI-117 producing VIM-1; test: Broth microdilution MIC in CAMHB; details: Klebsiella pneumoniae, read-out: Minimum Inhibitory Concentration, K. pneumoniae SI-117
Summary of the method: as §3

[11] = tested on: E. coli AG100A; test: Broth microdilution MIC in CAMHB; details: Escherichia coli, read-out: Minimum Inhibitory Concentration, E. coli AG100A
Summary of the method: as §3

[12] = tested on: E. coli D22; test: Broth microdilution MIC in CAMHB; details: Escherichia coli; E. coli D22 (hyper-permeable); MHB; read-out: Minimum Inhibitory Concentration, E. coli D22
Summary of the method: as §3

[13] = tested on: P. aeruginosa ATCC 35151; test: Broth microdilution MIC in CAMHB; details: Pseudomonas aeruginosa, ATCC35151; MHB; hyper-permeable strain; read-out: Minimum Inhibitory Concentration, P. aeruginosa ATCC 35151
Summary of the method: as §3

SMILES	MIC [1] [µg/mL]	MIC [2] [µg/mL]	MIC [3] [µg/mL]	MIC [4] [µg/mL]	MIC [5] [µg/mL]	MIC [6] [µg/mL]	MIC [7] [µg/mL]	MIC [8] [µg/mL]	MIC [9] [µg/mL]	MIC [10] [µg/mL]	MIC [11] [µg/mL]	MIC [12] [µg/mL]	MIC [13] [µg/mL]
NC1(CN2CCN(C(=O)NC(C(=O)N[C@H]3Cc4cccc(C(=O)O)c4OB3O)c3cccc(NS(N)(=O)=O)c3)C(=O)C2=O)CC1 (stereo partly drawn) [Example 120, (3R)-3-(2-(4-((1-aminocyclopropyl)methyl)-2,3-dioxopiperazine-1-carboxamido)-2-(3-(sulfamoylamino)phenyl)acetamido)-2-hydroxy-3,4-dihydro-2H-benzo[e][1,2]oxaborinine-8-carboxylic acid]	> 64	> 64	> 64	4 to 8 (≈ 6.22 to 12.4 µM)	> 64	> 64	> 64	> 64	> 128	> 128	8 to 16 (≈ 12.4 to 24.9 µM)	8 to 16 (≈ 12.4 to 24.9 µM)	0.5 to 1 (≈ 0.777 to 1.55 µM)
CCN1CCN(C(=O)NC(C(=O)N[C@H]2Cc3cccc(C(=O)O)c3OB2O)c2c(Cl)cc(C(=O)O)cc2Cl)C(=O)C1=O (stereo partly drawn) [Example 150, (3R)-3-(2-(4-carboxy-2,6-dichlorophenyl)-2-(4-ethyl-2,3-dioxopiperazine-1-carboxamido)acetamido)-2-hydroxy-3,4-dihydro-2H-benzo[e][1,2]oxaborinine-8-carboxylic acid]	16 to 32 (≈ 25.8 to 51.5 µM)	> 64	> 64	4 to 8 (≈ 6.44 to 12.9 µM)	> 64	> 64	> 64	> 64	> 128	> 128	32 to 64 (≈ 51.5 to 103 µM)	2 to 4 (≈ 3.22 to 6.44 µM)	0.5 to 1 (≈ 0.805 to 1.61 µM)
NCCN1CCN(C(=O)N[C@@H](C(=O)N[C@H]2Cc3cccc(C(=O)O)c3OB2O)c2cc(Cl)c(O)c(Cl)c2)C(=O)C1=O (single isomer, unassigned) [Example 166]	4 to 8 (≈ 6.58 to 13.2 µM)	> 64	> 64	0.25 to 0.5 (≈ 0.411 to 0.822 µM)	16 to 32 (≈ 26.3 to 52.6 µM)	> 64	16 to 32 (≈ 26.3 to 52.6 µM)	16 to 32 (≈ 26.3 to 52.6 µM)	8 to 16 (≈ 13.2 to 26.3 µM)	32 to 64 (≈ 52.6 to 105 µM)	0.5 to 1 (≈ 0.822 to 1.64 µM)	2 to 4 (≈ 3.29 to 6.58 µM)	< 0.25
NCCCN1CCN(C(=O)NC(C(=O)N[C@H]2Cc3ccc(F)c(C(=O)O)c3OB2O)c2c(F)cc(O)cc2F)C(=O)C1=O (stereo partly drawn) [Example 178, (3R)-3-(2-(4-(3-aminopropyl)-2,3-dioxopiperazine-1-carboxamido)-2-(2,6-difluoro-4-hydroxyphenyl)acetamido)-7-fluoro-2-hydroxy-3,4-dihydro-2H-benzo[e][1,2]oxaborinine-8-carboxylic acid]	16 to 32 (≈ 26.3 to 52.7 µM)	> 64	> 64	4 to 8 (≈ 6.59 to 13.2 µM)	> 64	> 64	16 to 32 (≈ 26.3 to 52.7 µM)	> 64	32 to 64 (≈ 52.7 to 105 µM)	32 to 64 (≈ 52.7 to 105 µM)	8 to 16 (≈ 13.2 to 26.3 µM)	2 to 4 (≈ 3.29 to 6.59 µM)	0.5 to 1 (≈ 0.823 to 1.65 µM)
CCN1CCN(C(=O)NC(C(=O)N[C@H]2Cc3cccc(C(=O)O)c3OB2O)c2cccc(C(=O)O)c2)C(=O)C1=O (stereo partly drawn) [Example 113, (3R)-3-(2-(3-carboxyphenyl)-2-(4-ethyl-2,3-dioxopiperazine-1-carboxamido)acetamido)-2-hydroxy-3,4-dihydro-2H-benzo[e][1,2]oxaborinine-8-carboxylic acid]	4 to 8 (≈ 7.24 to 14.5 µM)	> 64	> 64	0.25 to 0.5 (≈ 0.453 to 0.905 µM)	16 to 32 (≈ 29 to 57.9 µM)	> 64	4 to 8 (≈ 7.24 to 14.5 µM)	16 to 32 (≈ 29 to 57.9 µM)	32 to 64 (≈ 57.9 to 116 µM)	> 128	2 to 4 (≈ 3.62 to 7.24 µM)	2 to 4 (≈ 3.62 to 7.24 µM)	0.5 to 1 (≈ 0.905 to 1.81 µM)
CCN1CCN(C(=O)N[C@H](C(=O)N[C@H]2Cc3ccc(F)c(C(=O)O)c3OB2O)c2c(F)cc(O)c(O)c2Cl)C(=O)C1=O (single isomer, unassigned) [Example 125]	> 64	> 64	> 64	> 64	> 64	> 64	> 64	> 64	32 to 64 (≈ 52.4 to 105 µM)	32 to 64 (≈ 52.4 to 105 µM)	2 to 4 (≈ 3.27 to 6.55 µM)	2 to 4 (≈ 3.27 to 6.55 µM)	2 to 4 (≈ 3.27 to 6.55 µM)
